This is an account of results in article PMC8694022, “Molecular Docking-Based Screening for Novel Inhibitors of the Human Immunodeficiency Virus Type 1 Protease that Effectively Reduce the Viral Replication in Human Cells” (Journal of AIDS & clinical research, 2021).

The term IC50 denotes the midpoint of a concentration-inhibition curve.

The subject of data set [1] is HIV-1AD02. Description: Anti-viral activity in TZM-bl cells, multi PI-resistant HIV-1AD02 (luciferase). Type of data set: cell-based. As to the method:
(§1) Anti-viral activity was evaluated ex vivo by adding the highest non-toxic concentration of compound or 25uM RTV (Sigma) solubilized in DMSO on the day of infection by PI-sensitive (HIV-1AD) or multi (RTV and IDV) PI-resistant (HIV-1AD02) HIV-1 variants at 25 or 45 TCID50 per ml for PBMCs or TZM-bl cells, respectively. Replication was determined on post-infection day 7 in PBMC by measuring supernatant p24 antigen levels (Perkin-Elmer), or day 4 in TZM-bl cells by measuring luciferase activity using the luciferase assay system (Promega, Madison, WI) and the microplate luminometer Monolight 3096 (BD Biosciences, San Jose, CA). Inhibitory concentration (IC)50 was calculated based on anti-viral activity in TZM-bl cells with a nonlinear regression analysis (GraphPad Prism 6 Software). Reduction of viral replication by more than 50% was considered successful anti-viral activity. Combinatorial effect of drug with RTV was tested at IC50, and higher or lower concentrations than IC50.

The subject of data set [2] is HIV-1AD02. Description: Anti-viral activity alone or combined with 25 µM RTV, relative to 25 µM RTV, HIV-1AD02. Type of data set: cell-based. As to the method:
as §1
(§2) Combinatorial effect of drug was tested combining 25 μM RTV and higher or lower concentrations than IC50 of lead compounds. Combinations of compounds 18, 22, 27, 32 or 35 with 25 μM RTV were non-toxic in TZM-bl cells. Combination with RTV increased antiviral activity of all compounds against both PI-sensitive and PI-resistant HIV-1 variants (Figure 2).
(§3) Table S2. Fold change of compounds (18, 22, 27, 32 or 35) alone or in combination with 25 µM RTV compared to 25 µM
(§4) RTV. P values are reported in parenthesis with Bonferroni correction with significance p<0.0055; fold change >1 indicates […]
(§5) are highlighted in yellow; (-) not performed. (1) Anti-viral activity against HIV-1; (2) Compounds identification number.
(§6) Fold change of compounds compared to 25 µM RTV as reference […]

Data set [3] has as its system HIV-1AD. Briefly: Anti-viral activity in TZM-bl cells, PI-sensitive HIV-1AD (luciferase). Type of data set: cell-based. As to the method: as §1
In data set [4] the test system is HIV-1AD. Briefly: Anti-viral activity alone or combined with 25 µM RTV, relative to 25 µM RTV, HIV-1AD. Type of data set: cell-based. As to the method: as §1, §2, §3, §4, §5, §6
The target of the next data set is T1, HIV-1 PR subtype A (Human immunodeficiency virus type 1 group M subtype A, UniProt P24740).
T1 construct: HIV type 1 (HIV-1) PR is a homodimeric enzyme of 99 amino acids; made in house
Description: In vitro PR inhibition assay, subtype A. As to conditions: compound at 80 μM, 37 °C. Type of data set: biochemical. On the set-up: key: [+] or [−] indicating PR inhibition or no inhibition, respectively; [+] or [−] indicating PR inhibition or no inhibition, respectively. As to the method:
(§7) The compounds were obtained from the NCI/DTP and solubilized in DMSO (Sigma) for use in HIV-1 PR inhibition assays. Cloning, expression, and purification procedures of HIV-1 PRs obtained from […] samples have been previously described elsewhere. For detailed information of mutations harbored in the multi PI-resistant HIV-1PR as compared to the PI-sensitive PR, full amino acid sequences is given in supplementary materials (Figure S1). HIV-1 PRs subtype variants were assayed kinetically at 80 μM for inhibitory activity at 37 °C using selected compounds as previously described.
(§8) We explored the hypothesis that compounds selected in silico for binding to the hinge region of PR are effective as inhibitors of HIV-1 replication, including multi-PI resistant viruses, in human cells. Our of 139,739 compounds, the top 40 highest-scoring compounds targeting the structural pockets in the hinge of the PR (Figure S1) were obtained from the NCI/DTP for use in HIV PR inhibition assays. Compounds were initially tested in vitro at 80 μM to screen for inhibitory activity against PR subtypes A, B or C. Compounds inhibiting at least one subtype of the PR were considered as candidate compounds for further experiments.

Another data set relates to PBMCs. Briefly: Cell viability assay (CellTiter 96 AQueous) in PBMCs. As to conditions: 200 μM, day 7. Type of data set: cell-based, human. Here is the method:
(§9) Viability in presence of compounds was measured at day 4 or 7, TZM-bl cells or PBMCs, using CellTiter 96 AQueous one solution cell proliferation assay (Promega) following manufacturer instructions. Toxicity of compounds was defined as a concentration that produced more than 10% decline in viability of TZM-bl cells or PBMCs were viable at days 4 or 7 of exposure, respectively, compared with DMSO-treated controls.

Another data set deals with T2, HIV-1 PR subtype C (Human immunodeficiency virus type 1 group M subtype C, UniProt Q75002).
T2 construct: HIV type 1 (HIV-1) PR is a homodimeric enzyme of 99 amino acids; made in house
Briefly: In vitro PR inhibition assay, subtype C. Type of data set: biochemical. On the set-up: key: [+] or [−] indicating PR inhibition or no inhibition, respectively; [+] or [−] indicating PR inhibition or no inhibition, respectively. As to conditions: compound at 80 μM, 37 °C. As to the method: as §7, §8

The next data set concerns TZM-bl cells. Description: Cell viability assay (CellTiter 96 AQueous) in TZM-bl cells. Type of data set: cell-based, human. Here is the method: as §9
The target in another data set is T3, HIV-1 PR subtype B (Human immunodeficiency virus type 1 group M subtype B, UniProt P04585).
T3 construct: HIV type 1 (HIV-1) PR is a homodimeric enzyme of 99 amino acids; made in house
Description: In vitro PR inhibition assay, subtype B. Type of data set: biochemical. More on the design: key: [+] or [−] indicating PR inhibition or no inhibition, respectively; [+] or [−] indicating PR inhibition or no inhibition, respectively. As to conditions: compound at 80 μM, 37 °C. As to the method:
as §7, §8

The mark [5] stands for this setting: highest non-toxic concentration, day 4 luciferase.

The structures appear in SMILES notation.

T1 sequence (P24740 482-580): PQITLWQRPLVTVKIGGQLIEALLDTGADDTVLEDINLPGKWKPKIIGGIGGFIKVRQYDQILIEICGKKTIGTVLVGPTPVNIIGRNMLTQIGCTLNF
T2 sequence (Q75002 493-591): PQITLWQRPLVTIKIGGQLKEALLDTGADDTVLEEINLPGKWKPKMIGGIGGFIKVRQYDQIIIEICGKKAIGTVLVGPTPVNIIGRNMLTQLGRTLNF

In the case of `Nc1nc(N)c(N=Nc2ccc(C(=O)O)c(O)c2)c(N)n1` [Compound 18], the “reduction of replication of HIV-1AD02” value with HIV-1AD02 [1] (setting [5]) is “more than 80%”. In addition, the results for the IC50 in the data set on HIV-1AD02 [1] (multi PI-resistant variant) and with HIV-1AD [3] (PI-sensitive variant) were 68.5 µM and 62.7 µM, respectively. The “Fold change compared to 25 µM RTV” value in the data set on HIV-1AD02 [2] (HIV-1AD02, compound 25 µM with 25 µM RTV) worked out at 0.75 fold; in the data set on HIV-1AD02 [2] (HIV-1AD02, compound 50 µM with 25 µM RTV), 0.60 fold; in the data set on HIV-1AD02 [2] (HIV-1AD02, compound 100 µM with 25 µM RTV), 0.53 fold; with HIV-1AD02 [2] (HIV-1AD02, compound alone, 25 µM), 3.42 fold; with HIV-1AD02 [2] (HIV-1AD02, compound alone, 50 µM), 3.24 fold; with HIV-1AD02 [2] (HIV-1AD02, compound alone, 100 uM) it was 2.41 fold. In addition, the “Fold change compared to 25 µM RTV” value worked out at 0.54 fold in the data set on HIV-1AD [4] (compound 25 µM with 25 µM RTV); 0.32 fold with HIV-1AD [4] (compound 50 µM with 25 µM RTV); 0.40 fold in the data set with HIV-1AD [4] (compound 100 µM with 25 µM RTV); 1.12 fold with HIV-1AD [4] (compound alone, 25 µM); 1.13 fold with HIV-1AD [4] (compound alone, 50 µM); 0.87 fold with HIV-1AD [4] (compound alone, 100 uM). Further, the “reduction of replication of HIV-1AD” value with HIV-1AD [3] (setting [5]) is “more than 80%”. Further, at HIV-1 PR subtype A, the “Inhibition of PR subtype A” value is given as “+”. Also, in the data set on PBMCs, the “reduction of cell viability” value was found to be 28%. Moreover, at HIV-1 PR subtype C, the “Inhibition of PR subtype C” value is on record as “+”. The “toxicity (more than 10% decline in viability)” value in the data set with TZM-bl cells (200 μM, day 4) was “non-toxic”. Besides, in the data set on TZM-bl cells (compound combined with 25 μM RTV), the “toxicity of combination with 25 μM RTV” value is “non-toxic”. Further, on HIV-1 PR subtype B, the “Inhibition of PR subtype B” value is reported as “+”.
